Assay results reported in patent US11207312B2, “Metallo-beta-lactamase inhibitors and methods of use thereof” (priority 2017, dated 2021).

Columns and labels:
VIM-2 = VIM-2 (Escherichia coli, UniProt Q5U7L7); assay: biochemical; settings: CCF2-FA fluorescence assay; read-out: VIM2 IC50
NDM-1 = NDM-1 (Klebsiella pneumoniae, UniProt C7C422); assay: biochemical; assay type: biochemical; settings: CCF2-FA fluorescence assay, 2 hours at 25° C.
Summary of the method: (§1)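 Metallo-β-lactamase activity read by fluorescence against CCF2-FA (1.25 μM final) in 100 mM KH2PO4 pH 7 with 0.005% Tween-20 and 10 μM ZnSO4; enzyme final at 1 pM NDM-1, 2 pM IMP-1 or 30 pM VIM-1. Inhibitor at 20 to 0.00063 μM, 2 h at 25° C; IC50 by 4-parameter fit.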

[1] = system: P. aeruginosa MB9798 (efflux+, IMP-1 plasmid); settings: for MB9798 MITC95 P. aeruginosa uM Efflux WT: efflux + (MB9798) strain, imipenem at 2 μg/mL, in the presence of a class A, C, D serine β-lactamase inhibitor closely related to relebactam; for Efflux ratio: fold difference between efflux+ (MB9798) and efflux− (MB9799) strains
Summary of the method: (§2)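 PAO1-derived isogenic pair (oprD+, inducible AmpC), efflux+ MB5919 or efflux− MB5890 parent, carrying an electroporated IMP-1 plasmid from a clinical isolate. Microbroth MIC with fixed imipenem and/or ceftazidime (usually CLSI breakpoint) plus fixed class A/C inhibitor; MBL inhibitor serially titrated, concentration restoring susceptibility recorded.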

[2] = system: P. aeruginosa MB9799 (efflux-, IMP-1 plasmid); assay type: cell-based, Pseudomonas aeruginosa; settings: efflux − (MB9799) strain; imipenem at 2 μg/mL; in the presence of a class A, C, D serine β-lactamase inhibitor closely related to relebactam
Summary of the method: as §2

VIM-1 = VIM-1 (Pseudomonas aeruginosa (strain ATCC 15692 / DSM 22644 / CIP 104116 / JCM 14847 / LMG 12228 / 1C / PRS 101 / PAO1), UniProt A0A0F7KYQ8); assay: biochemical; settings: CCF2-FA fluorescence assay, 2 hours at 25° C.; read-out: VIM1 IC50
Summary of the method: as §1

IMP-1 = IMP-1 (Serratia marcescens, UniProt P52699); assay: biochemical; settings: CCF2-FA fluorescence assay, 2 hours at 25° C.; read-out: IMP1 IC50
Summary of the method: as §1

[3] = system: Escherichia coli expressing NDM-1 (CLB30016); assay type: cell-based; settings: with imipenem 1 μg/ml; 95% inhibition of bacterial growth
Summary of the method: (§3)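 Imipenem 1 μg/ml + inhibitor titration in cation-adjusted MHB (1.1× stock medium); overnight-cultured colonies suspended in saline, diluted 1:100. 35 °C, 22–24 h; absorbance read. MITC95 = lowest compound conc giving 95% growth inhibition.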

[4] = system: Serratia marcescens expressing IMP-1 (CL5741); assay type: cell-based; settings: with imipenem 1 μg/ml; 95% inhibition of bacterial growth
Summary of the method: as §3

[5] = system: Klebsiella pneumoniae expressing VIM-1 (IHMA599644); assay type: cell-based; settings: with imipenem 1 μg/ml; 95% inhibition of bacterial growth
Summary of the method: as §3

IMP-1, sequence (P52699 whole entry, looked up, species assumed): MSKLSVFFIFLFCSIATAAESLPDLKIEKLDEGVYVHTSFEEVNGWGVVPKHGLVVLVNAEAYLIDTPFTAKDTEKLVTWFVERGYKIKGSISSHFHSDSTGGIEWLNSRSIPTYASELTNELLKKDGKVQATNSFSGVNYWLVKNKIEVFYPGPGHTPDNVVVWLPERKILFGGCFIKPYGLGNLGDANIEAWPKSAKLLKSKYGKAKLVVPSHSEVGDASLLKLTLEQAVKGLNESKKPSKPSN
NDM-1, sequence (C7C422 whole entry, looked up, species assumed): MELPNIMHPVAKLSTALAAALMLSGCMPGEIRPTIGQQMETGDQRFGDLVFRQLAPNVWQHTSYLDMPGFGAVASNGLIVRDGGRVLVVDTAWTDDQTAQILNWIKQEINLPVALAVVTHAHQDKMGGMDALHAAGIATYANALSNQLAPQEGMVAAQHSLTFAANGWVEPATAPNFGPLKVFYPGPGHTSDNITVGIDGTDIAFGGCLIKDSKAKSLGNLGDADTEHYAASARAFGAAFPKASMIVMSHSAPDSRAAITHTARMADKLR

SMILES | IC50 (VIM-2) [nM] | IC50 (NDM-1) [nM] | MB9798 MITC95 P. aeruginosa uM Efflux WT [1] [µM] | Efflux ratio [1] | MB9799 MITC95 P. aeruginosa uM Efflux Mutant [2] [µM] | IC50 (VIM-1) [nM] | IC50 (IMP-1) [nM] | CLB30016 E. coli MITC95 NDM [3] [µM] | CL5741 S. marcescens MITC95 IMP [4] [µM] | IHMA599644 K. pneumoniae MITC95 VIM [5] [µM]
N[C@H]1CCN(c2ccc(S(=O)(=O)N[C@@H]3CCNC3)c(S(N)(=O)=O)c2-c2nn[nH]n2)C[C@H]1F [Example 199, 4-((3R,4S)-4-amino-3-fluoropiperidin-1-yl)-N1-((R)-pyrrolidin-3-yl)-3-(2H-tetrazol-5-yl)benzene-1,2-disulfonamide] | 4.27 | 1.69 | 0.78 | 1.00 | 0.78 | 0.18 | 6.11 | 0.39 | 0.10 | 0.39
NCC1CCN(c2ccc(S(=O)(=O)NC[C@@H](N)CN)c(S(N)(=O)=O)c2-c2nn[nH]n2)CC1 [Example 200, (S)-4-(4-(aminomethyl)piperidin-1-yl)-N1-(2,3-diaminopropyl)-3-(2H-tetrazol-5-yl)benzene-1,2-disulfonamide] | 8.28 | 3.1 | 50.00 | 1.00 | 50.00 | 0.51 | 4.57 | 0.78 | 1.56 | 3.13
NC[C@@H](O)CNS(=O)(=O)c1ccc(N2CCC(c3ncc[nH]3)CC2)c(-c2nn[nH]n2)c1S(N)(=O)=O [Example 201, (R)-4-(4-(1H-imidazol-2-yl)piperidin-1-yl)-N1-(3-amino-2-hydroxypropyl)-3-(2H-tetrazol-5-yl)benzene-1,2-disulfonamide] | 0.64 | 1.83 | 1.56 | 2.00 | 0.78 | 0.26 | 0.77 | 0.39 | 0.78 | 1.56
NCCNS(=O)(=O)C1CCN(c2ccc(S(=O)(=O)N[C@@H](CN)CO)c(S(N)(=O)=O)c2-c2nn[nH]n2)CC1 [Example 202, (S)-N1-(1-amino-3-hydroxypropan-2-yl)-4-(4-(N-(2-aminoethyl)sulfamoyl)piperidin-1-yl)-3-(2H-tetrazol-5-yl)benzene-1,2-disulfonamide] | 1.6 | 0.44 | 1.56 | 1.00 | 1.56 | 0.09 | 0.58 | 0.78 | 1.56 | 1.56
NCC=C1CCN(c2ccc(S(=O)(=O)NC[C@H](O)CN)c(S(N)(=O)=O)c2-c2nn[nH]n2)CC1 [Example 204, (R)—N1-(3-amino-2-hydroxypropyl)-4-(4-(2-aminoethylidene)piperidin-1-yl)-3-(2H-tetrazol-5-yl)benzene-1,2-disulfonamide] | 3.44 | 0.97 | 0.78 | 1.00 | 0.78 | 0.16 | 1.55 | 0.78 | 1.56 | 1.56
NC[C@@H](O)CNS(=O)(=O)c1ccc(N2CC[C@@H](N)[C@@H](F)C2)c(-c2nn[nH]n2)c1S(N)(=O)=O [Example 207, N1-((R)-3-amino-2-hydroxypropyl)-4-((3S,4R)-4-amino-3-fluoropiperidin-1-yl)-3-(2H-tetrazol-5-yl)benzene-1,2-disulfonamide] | 25.6 | 15 | 1.56 | 1.00 | 1.56 | 0.86 | 25.2 | 0.39 | 0.20 | 0.78
